This note sets out measurements from ChEMBL document CHEMBL3638542, “Imidazo[1,2-a]pyridine derivatives: preparation and pharmaceutical applications” (2014).

The assay has as its target Histone deacetylase 1 (Homo sapiens, UniProt Q13547). Nature of the assay: BIOMOL Fluorescent-Based Assay: The assay has been carried out in 96 well format and the BIOMOL fluorescent-based HDAC activity assay has been applied. The reaction composed of assay buffer, containing 25 mM Tris pH 7.5, 137 mM NaCl, 2.7 mM KCl, 1 mM MgCl2, 1 mg/ml BSA, tested compounds, an appropriate concentration of HDAC1 enzyme, 500 uM Flur de lys generic substrate for HDAC1 enzyme and subsequently was incubated at room temperature for 2 h. Flur de lys Developer was added and the reaction was incubated for 10 min. Briefly, deacetylation of the substrate sensitizes it to the developer, which then generates a fluorophore. The fluorophore is excited with 360 nm light and the emitted light (460 nm) is detected on a fluorometric plate reader (Tecan Ultra Microplate detection system, Tecan Group Ltd.).

Some results are limits rather than exact numbers.

Chain of Histone deacetylase 1 (Q13547 whole entry): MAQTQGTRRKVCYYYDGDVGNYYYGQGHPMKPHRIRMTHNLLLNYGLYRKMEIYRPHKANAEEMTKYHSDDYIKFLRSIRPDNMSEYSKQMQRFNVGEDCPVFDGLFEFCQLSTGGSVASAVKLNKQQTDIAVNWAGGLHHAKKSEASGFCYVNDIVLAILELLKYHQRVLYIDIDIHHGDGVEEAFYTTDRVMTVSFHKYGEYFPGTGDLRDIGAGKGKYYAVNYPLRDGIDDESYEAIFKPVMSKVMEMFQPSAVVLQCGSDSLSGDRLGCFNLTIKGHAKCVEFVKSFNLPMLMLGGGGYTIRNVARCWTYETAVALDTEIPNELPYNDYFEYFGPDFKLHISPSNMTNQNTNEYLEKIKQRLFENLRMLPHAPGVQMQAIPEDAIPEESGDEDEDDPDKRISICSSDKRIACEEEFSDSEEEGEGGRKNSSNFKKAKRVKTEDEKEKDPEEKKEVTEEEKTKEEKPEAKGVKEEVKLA

Usually IC50 stands for the concentration that gives 50% inhibition. With `COCCNc1c(CCC(=O)O)nc2ccc(/C=C/C(=O)NO)cn12`, the IC50 stood at 320 nM. With `CC(C)(C)Nc1c(C(=O)O)nc2ccc(/C=C/C(=O)NO)cn12`, the IC50 was > 10000 nM.

Regarding `CCCCCCc1nc2cc(/C=C/C(=O)NO)ccn2c1NCCC(=O)N(C)CC#N`, the IC50 was > 10000 nM.

`CCCCc1nc2cc(/C=C/C(=O)NO)ccn2c1CN(CC)CC(C)CCC` (centres undefined): the IC50 was 60 nM.
